The record followed here is EP2440179B1, “CHITOSAN OLIGOSACCHARIDE-BASED COMPOSITIONS” (Teslenko, Alexander, priority 2009, dated 2010).

The subject of data set [1] is Walker-Carciosarcom. The data set can be described thus: Photodynamic therapy in tumour-bearing rats: histological/cytological examination of tumour necrosis. Type of data set: in vivo, Ratten.
Excerpt: Der Nachweis der therapeutischen Wirkung von COS-ALA-Addukten erfolgte an insgesamt 60 Ratten mit einem Walker-Carciosarcom (30 Verum- und 30 Kontrolltiere). Die Tumore waren den Tieren implantiert worden, die photodynamische Therapie mit COS-ALA wurde durchgeführt, wenn die Tumoren eine Große von 1 cm^3 erreicht hatten.
Zur Behandlung diente eine Lampe "[sequence]" (Galdena AG, Frankfurt/M.) mit monochromatischem Licht der Wellenlänge λ = 634 nm. Die Bestrahlungsdosis betrug 37 J/cm^2, die mittlere Energie 8,5 W. Die behandelten Gruppen bestanden aus jeweils 6 Tieren, die nach 1, 2, 3, 5, 6 und 24 Stunden sowie 2 Wochen untersucht wurden. Dazu wurden die Tiere getötet, die Tumore exstirpiert und deren Gewicht und Größe gemessen. Für histologische Untersuchungen wurde Gewebe in 10 %iger Formalinlösung fixiert.
In data set [2] the test system is Walker-Carciosarcom. The data set can be described thus: Photodynamic therapy in tumour-bearing rats: malondialdehyde in tumour homogenate (2-thiobarbituric acid). The data set is classed as in vivo, Ratten. The conditions noted are these: marker of oxidative stress. The text has this:
Der Nachweis der therapeutischen Wirkung von COS-ALA-Addukten erfolgte an insgesamt 60 Ratten mit einem Walker-Carciosarcom (30 Verum- und 30 Kontrolltiere). Die Tumore […] worden, die photodynamische Therapie mit COS-ALA wurde durchgeführt, wenn die Tumoren eine Große von 1 cm^3 erreicht hatten. Zur Behandlung […], Frankfurt/M.) mit monochromatischem […] λ = 634 nm. Die Bestrahlungsdosis betrug 37 J/cm^2, die […]. […] Dazu wurden die Tiere getötet, die Tumore […] und deren Gewicht und […] histologische Untersuchungen wurde Gewebe in 10 %iger Formalinlösung fixiert. Zur Bestimung des oxidativen Stress in den Tumorhomogenisaten diente der Gehalt an Malondialdehyd, der mit Hilfe der 2-Thiobarbitursäure bestimmt wurde.

The format of data set [3] is in vitro ADME, Schwein. The conditions noted are these: mean of 4 treated pig skins, after 2 Stunden Applikation. As for the experimental part:
Schweineohren wurden ohne Hautverletzungen sofort nach der Schlachtung aus einem Schlachthof abgeholt. Die Ohren wurden gründlich mit milder Seife abgewaschen. Unmittelbar danach wurde die subkutane Fettschicht mit dem Skalpell abgetrennt. Die Haut wurde in einem Container bei -20°C für weitere Untersuchungen aufbewahrt. Die Trennung der Epidermis von der Dermis erfolgte vorsichtig nach Erwärmung bei 60°C (1 Minute).
Die Eindringtiefe von COS-Salicylat wurde im Rahmen eines Schälverfahrens an einer Modellhaut bestimmt. Die 10%-ige COS-Salicylat-Lösung wurde auf die Hautoberfläche der Ohren aufgetragen und etwa 1 bis 2 Minuten in die Haut einmassiert. Währenddessen wurden die Ohren bei 35 °C temperiert.
Für die Schälung wurden 15 Tesafilmstreifen (Typ Tesa® Office, Beiersdorf, DE) auf eine Größe von 1,5 cm * 1,5 cm geschnitten und ausgewogen. Die auf dem Schweineohr ausgewählten Untersuchungsfelder von 2 cm * 2 cm wurden nacheinander mit den vorbereiteten Tesafilm-Streifen beklebt und danach abgezogen.
Die Streifen wurden mit Acetonitril bei 60°C im Laufe von 60 Minuten extrahiert. Die Lösungen wurden durch 0,5 µm-Membranen filtriert und mit Hilfe von HPLC analysiert.
Das Shimadzu LC-20A HPLC-System bestand aus einer Spherisorb S5 ODS2-Säule (Waters Co) und UV-Detektor. Mobile Phase war Wasser-Methanol-Acetonitril-Essigsaure. Tabelle 2: Mittelwerte der Wiederfindung aus 4 behandelten Schweinehäuten des COS-Salicylat (aus Beispiel 1) und Salicylsäure in einzelnen Hautschichten nach 2 Stunden Applikation.
Der Gehalt von COS-Salicylat in Epidermis und Dermis wurde mit Hilfe einer Franz-Zelle bestimmt.

As for 5-Aminolävulinsäure [ALA], in data set [1] (time until necrosis is seen), the “Nekrose in der Mitte des Tumorgewebes zu sehen nach” value is given as 72 Stunden. Also, in data set [1] (time until necrosis of the whole tumour), the “Nekrose verbreitet sich auf das ganze Tumorgewebe nach” value came out at 2 Wochen. Moreover, the Malondialdehyd was 0,25 nmol/mL in data set [2] (Zeit nach PDT 1 h); 0,42 nmol/mL in data set [2] (Zeit nach PDT 2 h); 0,47 nmol/mL in data set [2] (Zeit nach PDT 3 h); 0,55 nmol/mL in data set [2] (Zeit nach PDT 5 h); 0,61 nmol/mL in data set [2] (Zeit nach PDT 6 h); 0,75 nmol/mL in data set [2] (Zeit nach PDT 24 h).

With `O=C(O)c1ccccc1O` [Salicylsäure], in data set [3], the “Wiederfindung, Verteilung in Dermis” value is listed as 1,0 ± 0,15 µg/cm^2; the “Wiederfindung, Verteilung in Epidermis” value is 2,1 ± 0,2 µg/cm^2; the “Wiederfindung, Verteilung in Hornschicht” value was 5,3 ± 0,4 µg/cm^2.
